Reference: paper PMC12005229, “Final results from the phase Ia/Ib study of the novel bromodomain and extra-terminal domain inhibitor, BI 894999, in patients with advanced solid tumors or diffuse large B-cell lymphoma” (ESMO Open, 2025)
Where two headings read alike, the source gives them in different places.

What was measured:
[1] = tested on: patients with advanced solid tumors (SCLC, CRC, mCRPC, NUT carcinoma); test: phase Ib expansion: tumor response (RECIST 1.1), PFS, OS; format: in vivo, human; settings: for Best overall response: complete response / Best overall response: not evaluable / Best overall response: partial response / Best overall response: progressive disease / Best overall response: stable disease / Disease control / Median PFS / Objective response / Median OS: phase Ib
Method: PFS was measured for the period from the start of treatment to the occurrence of progressive disease or death. Tumor response was measured using RECIST 1.1[28] for patients with solid tumors and RECIL 2017[29] for those with DLBCL. OS was assessed in patients with NUT carcinoma; the OS status was to continue until 12 months after the end of the study.
Supplementary Table 1. […]
• Objective response (OR), defined as complete response (CR) or partial response (PR) with tumor assessment during treatment period for each schedule according to Response Evaluation Criteria in Solid Tumors (RECIST) version 1.1. For DLBCL patients, a minor response according to Response Evaluation Criteria in Lymphoma (RECIL) 2017 was not part of an OR […]
• Progression-free survival (PFS), defined from date of start of BI 894999 to the date of objective disease progression or death, whichever was earlier, with tumor assessment every 2 cycles (every 6 weeks for Schedule B if no delays or as close as possible to the end of the second of the 2 cycles of treatment if there was a delay) during the treatment period
Radiological PFS with tumor assessment by bone scan every 4 cycles for mCRPC patients with non-measurable disease by RECIST 1.1 […]
• Overall survival in patients with NUT carcinoma. This was for patients in the trial after approval of […]
The overall survival status was to continue until 12 months after the end of trial […]
AUC0–24, area under the plasma concentration–time curve over the 24-hour dosing interval; AUCτ, ss , area under the plasma concentration–time curve over the dosing interval τ at steady state; AE, adverse event; Cmax, maximal exposure; Cma x , s s , maximal exposure at steady state; DLBCL, diffuse large B- cell lymphoma; DLT, dose-limiting toxicity; mCRPC, metastatic castration-resistant prostate cancer; NUT, nuclear protein in […]

[2] = plasma pharmacokinetics, LC-MS/MS, noncompartmental analysis; format: in vivo, human; settings: for Tmax / AUC(0-t) / Cmax: human, plasma, oral
Method: Samples were collected for PK analysis in cycle 1: 5 min pre-dose, 30 min, 1, 2, 3, 4, 6, and 8 h after drug administration on day 1 (schedules B and C) and on day 14 (for schedule B) or day 21 (for schedule C); 5 min pre-dose on days 8 and 12 (for schedule B) and at time of the visit on day 8 (168 h) for schedule C; 5 min pre-dose on day 18 (at time of the visit) for schedule B; and on day 22 (504 and 512 h) and day 29 (at time of the visit) for schedule C. For schedule B, a few additional samples were also taken in cycle 2: 5 min pre-dose, 2, 4, and 8 h on day 1, and 5 min pre-dose on day 2.
BI 894999 plasma concentrations were determined using a validated assay based on liquid chromatography coupled with tandem mass spectrometry. PK parameters were determined by noncompartmental analysis using the Phoenix WinNonlin software (Phoenix 6.3, Certara USA Inc., Princeton, NJ).

[3] = tested on: patients with solid tumors; parameters: method as in PMID 37556913; settings: cited from earlier work; for maximum tolerated dose (MTD): solid tumors

## CNc1nc(-c2nc3ccc(N4CCN(C)CC4)cc3n2Cc2ccccc2)cn2c(C)nnc12 [BI 894999]
[1]; CRC
  patients with SD: 2 n
  Best overall response: complete response: 0 (0.0) n (%)
  Best overall response: not evaluable: 2 (14.3) n (%)
  Best overall response: partial response: 0 (0.0) n (%)
  Best overall response: progressive disease: 10 (71.4) n (%)
  Best overall response: stable disease: 2 (14.3) n (%)
  Disease control: 2 (14.3) n (%)
  Median PFS: 5.6 weeks
  Objective response: 0 (0.0) n (%)
[1]; NUT carcinoma
  observed objective response rate: < 10%
[1]; NUT carcinoma, 42 patients
  patients not assessable: 19.0%
  patients with SD: 31.0%
  patients with complete response: 1 n
  patients with confirmed CR: 2.4%
  patients with disease control: 16 patients
  patients with progressive disease: 42.9%
  patients with responses: 7.1%
[1]; NUT carcinoma, one patient
  duration of response (DOR) of confirmed CR: 253 days
  duration of response (DOR) of confirmed PR: 588 days
[1]; SCLC
  patients with SD: 1 n
  Best overall response: complete response: 0 (0.0) n (%)
  Best overall response: not evaluable: 3 (25.0) n (%)
  Best overall response: partial response: 0 (0.0) n (%)
  Best overall response: progressive disease: 8 (66.7) n (%)
  Best overall response: stable disease: 1 (8.3) n (%)
  Disease control: 1 (8.3) n (%)
  Median PFS: 5.6 weeks
  Objective response: 0 (0.0) n (%)
[1]; mCRPC
  patients with SD: 2 n
  Best overall response: complete response: 0 (0.0) n (%)
  Best overall response: not evaluable: 4 (36.4) n (%)
  Best overall response: partial response: 1 (9.1) n (%)
  Best overall response: progressive disease: 4 (36.4) n (%)
  Best overall response: stable disease: 2 (18.2) n (%)
  Disease control: 3 (27.3) n (%)
  Median PFS: 11.9 weeks
  Objective response: 1 (9.1) n (%)
[1]; mCRPC, one patient
  duration of response (DOR) of confirmed PR: 46 days
[1]; other solid tumor types n = 37
  patients not assessable: 24.3%
  patients with SD: 13.5%
  patients with confirmed PR (mCRPC): 2.7%
  patients with progressive disease: 59.5%
[1]; phase Ib n = 79
  patients with confirmed CR (BOR): 1.3%
[1]; NUT carcinoma (Schedule B)
  Best overall response: complete response: 0 (0.0) n (%)
  Best overall response: not evaluable: 3 (15.0) n (%)
  Best overall response: partial response: 1 (5.0) n (%)
  Best overall response: progressive disease: 9 (45.0) n (%)
  Best overall response: stable disease: 7 (35.0) n (%)
  Disease control: 8 (40.0) n (%)
  Median OS: 6.6 weeks
  Median PFS: 6.9 weeks
  Objective response: 1 (5.0) n (%)
[1]; NUT carcinoma (Schedule C)
  Best overall response: complete response: 1 (4.5) n (%)
  Best overall response: not evaluable: 5 (22.7) n (%)
  Best overall response: partial response: 1 (4.5) n (%)
  Best overall response: progressive disease: 9 (40.9) n (%)
  Best overall response: stable disease: 6 (27.3) n (%)
  Disease control: 8 (36.4) n (%)
  Median OS: 15.4 weeks
  Median PFS: 7.8 weeks
  Objective response: 2 (9.1) n (%)
[1]; NUT carcinoma total
  Median OS: 15.4 weeks
[1]; total
  Best overall response: complete response: 1 (1.3) n (%)
  Best overall response: not evaluable: 17 (21.5) n (%)
  Best overall response: partial response: 3 (3.8) n (%)
  Best overall response: progressive disease: 40 (50.6) n (%)
  Best overall response: stable disease: 18 (22.8) n (%)
  Disease control: 22 (27.8) n (%)
  Median PFS: 6.9 weeks
  Objective response: 4 (5.1) n (%)
[2]; 1.5 mg, phase Ia DLBCL, schedule B 1.5 mg, day 1, read-out: tmax median
  Tmax: 2.02 h
[2]; 1.5 mg, phase Ia DLBCL, schedule B 1.5 mg, day 14, read-out: tmax,ss median
  Tmax: 2.56 h
[2]; 2 mg, phase Ia DLBCL, schedule B 2.0 mg, day 1, read-out: tmax median
  Tmax: 2.01 h
[2]; 2 mg, phase Ia DLBCL, schedule B 2.0 mg, day 14, read-out: AUC0–24,ss gMean (gCV, %)
  AUC(0-t): 0.12 µM·h
[2]; 2 mg, phase Ia DLBCL, schedule B 2.0 mg, day 14, read-out: tmax,ss median
  Tmax: 2.12 h
[2]; 2 mg, phase Ib solid tumors, schedule B 2.0 mg, day 1, read-out: tmax median
  Tmax: 2 h
[2]; 2 mg, phase Ib solid tumors, schedule B 2.0 mg, day 14, read-out: tmax,ss median
  Tmax: 2 h
[2]; 2.5 mg, phase Ia DLBCL, schedule B 2.5 mg, day 1, read-out: AUC0–24 gMean (gCV, %)
  AUC(0-t): 0.0533 µM·h
[2]; 2.5 mg, phase Ia DLBCL, schedule B 2.5 mg, day 1, read-out: tmax median
  Tmax: 2.04 h
[2]; 2.5 mg, phase Ib, schedule B 2.5 mg including NUT carcinoma, day 1, read-out: tmax median
  Tmax: 2.01 h
[2]; 2.5 mg, phase Ib, schedule B 2.5 mg including NUT carcinoma, day 14, read-out: AUC0–24,ss gMean (gCV, %)
  AUC(0-t): 0.125 µM·h
[2]; 2.5 mg, phase Ib, schedule B 2.5 mg including NUT carcinoma, day 14, read-out: tmax,ss median
  Tmax: 2 h
[2]; 4 mg, phase Ia DLBCL, schedule C 4.0/2.0 mg, day 1 after loading dose, read-out: AUC0–24 gMean (gCV, %)
  AUC(0-t): 0.138 µM·h
[2]; 4 mg, phase Ia DLBCL, schedule C 4.0/2.0 mg, day 1 after loading dose, read-out: tmax median
  Tmax: 2 h
[2]; 6 mg, phase Ib, schedule C 6.0/3.0 mg NUT carcinoma only, day 1 after loading dose, read-out: AUC0–24 gMean (gCV, %)
  AUC(0-t): 0.214 µM·h
[2]; 6 mg, phase Ib, schedule C 6.0/3.0 mg NUT carcinoma only, day 1 after loading dose, read-out: tmax median
  Tmax: 2 h
[2]; phase Ib, schedule C 6.0/3.0 mg NUT carcinoma only, day 21, read-out: AUC0–24,ss gMean (gCV, %)
  AUC(0-t): 0.149 µM·h
[2]; phase Ib, schedule C 6.0/3.0 mg NUT carcinoma only, day 21, read-out: tmax,ss median
  Tmax: 2.05 h
[2]; single dose day 1 and once-daily multiple doses days 14 or 21, read-out: median time to maximum plasma concentration (tmax)
  Tmax: ~2 h
[2]; phase Ia DLBCL, schedule B 2.0 mg, day 14, read-out: Cmax,ss gMean (gCV, %)
  Cmax: 7.67 nM
[2]; phase Ia DLBCL, schedule B 2.5 mg, day 1, read-out: Cmax gMean (gCV, %)
  Cmax: 4.75 nM
[2]; within a dosing schedule and indication
  dose dependence of plasma concentrations: increased with increasing dose
[3]; initial phase Ia, investigator's assessment
  disease control (CR, PR or SD): 26.0%
[3]; initial phase Ia
  best response PR: 3.9%
  patients with grade ≥3 DLTs: 22 of 77
[3]; schedule A (days 1-21 of 3-week cycle)
  maximum tolerated dose (MTD): 1.5 mg
[3]; schedule B (days 1-14 of 3-week cycle)
  maximum tolerated dose (MTD): 2.5 mg
